Literature values, collected in US9708371B2, “Treatments for gastrointestinal disorders” (Ironwood Pharmaceuticals, Inc., priority 2011, dated 2017).
Bridge positions count the residues as written; N and C are the ends. Peptide text beside a SMILES is read from it.

Conditions: therapeutic dose levels

C[C@@H]1NC(=O)[C@@H]2CCCN2C(=O)[C@H](CC(N)=O)NC(=O)[C@@H]2CSSC[C@H](N)C(=O)N[C@H]3CSSC[C@H](NC1=O)C(=O)N[C@@H]([C@@H](C)O)C(=O)NCC(=O)N[C@H](C(=O)N[C@@H](Cc1ccc(O)cc1)C(=O)O)CSSC[C@H](NC(=O)[C@H](Cc1ccc(O)cc1)NC(=O)[C@H](CCC(=O)O)NC3=O)C(=O)N2 [Linaclotide, Cys Cys Glu Tyr Cys Cys Asn Pro Ala Cys Thr Gly Cys Tyr] (H-CCEYCCNPACTGCY-OH; disulfide 1-6, 2-10, 5-13 (inferred); N-terminus and C-terminus assumed)
levels seen systemically after oral administration: no detectable levels
